The results in this text go back to patent US10251394B2, “Molecules having pesticidal utility, and intermediates, compositions, and processes, related thereto” (Dow AgroSciences LLC, priority 2016, dated 2019).

For assay [1], the system named is Beet Armyworm (Spodoptera exigua). As to the kind of experiment: Bioassay on Beet Armyworm (BAW), 128-well diet tray assay. It counts as in vivo. To be noted: for pest or weed control at 50 µg/cm2: Beet Armyworm, Table ABC, read-out: BAW rating. In outline: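 Percent mortality, averaged over eight wells, was scored after five to seven days at 25° C under 14:10 light-dark. Each well's diet carried 50 μg/cm^2 of test molecule applied in acetone-water (90:10) and dried before one to five second-instar larvae were added.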

The subject of assay [2] is Cabbage Looper (Trichoplusia ni). As to the kind of experiment: Bioassay on Cabbage Looper (CL), 128-well diet tray assay. It is filed as in vivo. To be noted: for pest or weed control at 50 µg/cm2: Cabbage Looper, Table ABC, read-out: CL rating. A digest of the protocol:
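Mortality after five to seven days at 25° C (14:10 photoperiod), averaged over eight wells per compound. Diet in each well carried 50 μg/cm^2 of dried test molecule and received one to five second-instar larvae.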

Turning to `C[C@@H](NC(=O)c1ccc(/C(F)=C/C(c2cc(Cl)c(Cl)c(C(F)F)c2)C(F)(F)F)cc1C(F)(F)F)C(=O)NCC(F)(F)F` (stereo partly drawn) [F195, 4-((Z)-3-(3,4-dichloro-5-(difluoromethyl)phenyl)-1,4,4,4-tetrafluorobut-1-en-1-yl)-N—((R)-1-oxo-1-((2,2,2-trifluoroethyl)amino)propan-2-yl)-2-(trifluoromethyl)benzamide], the pest or weed control at 50 µg/cm2 in assay [1] and in assay [2] was 50 to 100% in each case.
With `C[C@@H](NC(=O)c1ccc(/C(F)=C/C(c2ccc(Cl)c(Cl)c2)C(F)(F)F)cc1Br)C(=O)NCC(F)(F)F` (stereo partly drawn) [F123, 2-Bromo-4-((Z)-3-(3,4-dichlorophenyl)-1,4,4,4-tetrafluorobut-1-en-1-yl)-N—((R)-1-oxo-1-((2,2,2-trifluoroethyl)amino)propan-2-yl)benzamide], the pest or weed control at 50 µg/cm2 in assay [1] and in assay [2] was 50 to 100% in each case.
Take `CC[C@@H](NC(=O)c1ccc(/C(F)=C/C(c2cc(Cl)c(Cl)c(Cl)c2)C(F)(F)F)cc1C(F)(F)F)C(=O)NCC(F)(F)F` (stereo partly drawn) [F98, N—((R)-1-Oxo-1-((2,2,2-trifluoroethyl)amino)butan-2-yl)-4-((Z)-1,4,4,4-tetrafluoro-3-(3,4,5-trichlorophenyl)but-1-en-1-yl)-2-(trifluoromethyl)benzamide]: the pest or weed control at 50 µg/cm2 in assay [1] and in assay [2] was 50 to 100% each time.
`CC(F)(F)C(/C=C(\F)c1ccc(C(=O)NC2(C(=O)NCC(F)(F)F)CC2)c(C(F)(F)F)c1)c1cc(Cl)c(Cl)c(Cl)c1` (stereo not drawn) [F58, (Z)-4-(1,4,4-Trifluoro-3-(3,4,5-trichlorophenyl)pent-1-en-1-yl)-N-(1-((2,2,2-trifluoroethyl)carbamoyl)cyclopropyl)-2-(trifluoromethyl)benzamide]: the pest or weed control at 50 µg/cm2 in assay [1] and in assay [2] was 50 to 100% each time.
With `C[C@@H](NC(=O)c1ccc(/C(F)=C/C(c2cc(Cl)c(Cl)c(Cl)c2)C(C)(F)F)cc1C(F)(F)F)C(=O)NCC(F)(F)F` (stereo partly drawn) [F29, N—((R)-1-Oxo-1-((2,2,2-trifluoroethyl)amino)propan-2-yl)-4-((Z)-1,4,4-trifluoro-3-(3,4,5-trichlorophenyl)pent-1-en-1-yl)-2-(trifluoromethyl)benzamide], the pest or weed control at 50 µg/cm2 in assay [1] and in assay [2] was 50 to 100% each time.
In general, mortality refers to the percentage killed. Regarding `C[C@@H](NC(=O)c1ccc(/C(F)=C/C(c2cc(Cl)c(Cl)c(Cl)c2)C(F)(F)F)cc1Cl)C(=O)NCC(F)(F)F` (stereo partly drawn) [F23, 2-Chloro-N—((R)-1-oxo-1-((2,2,2-trifluoroethyl)amino)propan-2-yl)-4-((Z)-1,4,4,4-tetrafluoro-3-(3,4,5-trichlorophenyl)but-1-en-1-yl)benzamide], the mortality at 0.05 µg/cm2 was determined as 81% in assay [1] (168 h, 0.05 μg/cm^2 on artificial diet, second instar larvae, five to seven days, read-out: BAW Percent control (or mortality)) and 100% in assay [2] (168 h, 0.05 μg/cm^2 on artificial diet, second instar larvae, five to seven days, read-out: CL Percent control (or mortality)). Further, the mortality at 0.5 µg/cm2 was 100% in assay [1] (168 h, 0.5 μg/cm^2 on artificial diet, second instar larvae, five to seven days, read-out: BAW Percent control (or mortality)) and 100% in assay [2] (168 h, 0.5 μg/cm^2 on artificial diet, second instar larvae, five to seven days, read-out: CL Percent control (or mortality)). For the same compound, the mortality at 5 µg/cm2 in assay [1] (168 h, 5 μg/cm^2 on artificial diet, second instar larvae, five to seven days, read-out: BAW Percent control (or mortality)) amounted to 100%; in assay [2] (168 h, 5 μg/cm^2 on artificial diet, second instar larvae, five to seven days, read-out: CL Percent control (or mortality)), 100%. Besides, the pest or weed control at 50 µg/cm2 in assay [1] and in assay [2] was 50 to 100% throughout.
As to `CON(CC(F)(F)F)C(=O)[C@@H](C)NC(=O)c1ccc(/C(F)=C/C(c2cc(Cl)c(Cl)c(Cl)c2)C(F)(F)F)cc1C(F)(F)F` (stereo partly drawn) [F24, N—((R)-1-(Methoxy(2,2,2-trifluoroethyl)amino)-1-oxopropan-2-yl)-4-((Z)-1,4,4,4-tetrafluoro-3-(3,4,5-trichlorophenyl)but-1-en-1-yl)-2-(trifluoromethyl)benzamide], the pest or weed control at 50 µg/cm2 in assay [1] and in assay [2] was 50 to 100% in each case.
`COC(=O)CC(NC(=O)c1ccc(/C(F)=C/C(c2cc(Cl)c(Cl)c(Cl)c2)C(F)(F)F)cc1C(F)(F)F)C(F)(F)F` (stereo not drawn) [F166, Methyl (Z)-4,4,4-trifluoro-3-(4-(1,4,4,4-tetrafluoro-3-(3,4,5-trichlorophenyl)but-1-en-1-yl)-2-(trifluoromethyl)benzamido)butanoate]: the pest or weed control at 50 µg/cm2 in assay [1] and in assay [2] was 50 to 100% each time.
Regarding `C=Cc1cc(C(/C=C(\F)c2ccc(C(=O)N[C@H](C)C(=O)NCC(F)(F)F)c(C(F)(F)F)c2)C(F)(F)F)cc(C=C)c1Cl` (stereo partly drawn) [F184, 4-((Z)-3-(4-Chloro-3,5-divinylphenyl)-1,4,4,4-tetrafluorobut-1-en-1-yl)-N—((R)-1-oxo-1-((2,2,2-trifluoroethyl)amino)propan-2-yl)-2-(trifluoromethyl)benzamide], the pest or weed control at 50 µg/cm2 in assay [1] and in assay [2] was 50 to 100% throughout.
With `O=C(NC1(C(=O)NCC(F)(F)F)CC1)c1ccc(/C(F)=C/C(c2ccc(Cl)c(Cl)c2)C(F)(F)F)cc1Br` (stereo not drawn) [F125, (Z)-2-Bromo-4-(3-(3,4-dichlorophenyl)-1,4,4,4-tetrafluorobut-1-en-1-yl)-N-(1-((2,2,2-trifluoroethyl)carbamoyl)cyclopropyl)benzamide], the pest or weed control at 50 µg/cm2 in assay [1] and in assay [2] was 50 to 100% each time.
As for `C[C@@H](NC(=O)c1ccc(/C(F)=C/C(c2cc(Cl)cc(C(F)F)c2)C(F)(F)F)cc1C(F)(F)F)C(=O)NCC(F)(F)F` (stereo partly drawn) [F213, 4-((Z)-3-(3-Chloro-5-(difluoromethyl)phenyl)-1,4,4,4-tetrafluorobut-1-en-1-yl)-N—((R)-1-oxo-1-((2,2,2-trifluoroethyl)amino)propan-2-yl)-2-(trifluoromethyl)benzamide], the pest or weed control at 50 µg/cm2 in assay [1] and in assay [2] was 50 to 100% in each case.
Consider `C[C@@H](NC(=O)c1ccc(/C(F)=C/C(c2ccc(Br)c(Cl)c2)C(F)(F)F)cc1C(F)(F)F)C(=O)N(C)CC(F)(F)F` (stereo partly drawn) [PF26, 4-((Z)-3-(4-Bromo-3-chlorophenyl)-1,4,4,4-tetrafluorobut-1-en-1-yl]-N—((R)-1-(methyl(2,2,2-trifluoroethyl)amino)-1-oxopropan-2-yl)-2-(trifluoromethyl)benzamide], for which the pest or weed control at 50 µg/cm2 in assay [1] and in assay [2] was 50 to 100% throughout.
`Cc1cc(/C(F)=C/C(c2cc(Cl)c(Cl)c(Cl)c2)C(C)(F)F)ccc1C(=O)N[C@H](C)C(=O)NCC(F)(F)F` (stereo partly drawn) [F26, 2-Methyl-N—((R)-1-oxo-1-((2,2,2-trifluoroethyl)amino)propan-2-yl)-4-((Z)-1,4,4-trifluoro-3-(3,4,5-trichlorophenyl)pent-1-en-1-yl)benzamide]: the pest or weed control at 50 µg/cm2 in assay [1] and in assay [2] was 50 to 100% in each case.
Regarding `C[C@@H](NC(=O)c1ccc(/C(F)=C/C(c2cc(Cl)c(Cl)c(Cl)c2)C(F)(F)F)cc1C(F)(F)F)C(=O)/C=C/CC(F)(F)F` (stereo partly drawn) [F140], the pest or weed control at 50 µg/cm2 in assay [1] and in assay [2] was 50 to 100% throughout.
For `C#Cc1cc(C(/C=C(\F)c2ccc(C(=O)N[C@H](C)C(=O)NCC(F)(F)F)c(C(F)(F)F)c2)C(F)(F)F)cc(Cl)c1Cl` (stereo partly drawn) [F189, 4-((Z)-3-(3,4-Dichloro-5-ethynylphenyl)-1,4,4,4-tetrafluorobut-1-en-1-yl)-N—((R)-1-oxo-1-((2,2,2-trifluoroethyl)amino)propan-2-yl)-2-(trifluoromethyl)benzamide], the pest or weed control at 50 µg/cm2 in assay [1] and in assay [2] was 50 to 100% each time.
